The text below walks through data of ChEMBL document CHEMBL1139949, “Structure-activity relationship, kinetic mechanism, and selectivity for a new class of ubiquitin C-terminal hydrolase-L1 (UCH-L1) inhibitors” (Bioorg Med Chem Lett, 2007).

For series [1], the target named is T1, Ubiquitin carboxyl-terminal hydrolase isozyme L3 (Homo sapiens) (UniProt P15374).
T1 sequence (whole entry): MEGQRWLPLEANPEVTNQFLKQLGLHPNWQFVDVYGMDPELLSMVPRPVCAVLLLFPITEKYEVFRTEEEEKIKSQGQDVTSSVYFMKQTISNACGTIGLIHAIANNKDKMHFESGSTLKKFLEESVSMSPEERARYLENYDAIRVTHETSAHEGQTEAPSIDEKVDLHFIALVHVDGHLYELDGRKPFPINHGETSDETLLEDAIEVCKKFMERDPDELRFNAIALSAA
Nature of the series: Inhibition of UCHL3 at 20 uM.

A further series concerns the target T2, Papain (Carica papaya) (UniProt P00784).
T2 sequence (whole entry): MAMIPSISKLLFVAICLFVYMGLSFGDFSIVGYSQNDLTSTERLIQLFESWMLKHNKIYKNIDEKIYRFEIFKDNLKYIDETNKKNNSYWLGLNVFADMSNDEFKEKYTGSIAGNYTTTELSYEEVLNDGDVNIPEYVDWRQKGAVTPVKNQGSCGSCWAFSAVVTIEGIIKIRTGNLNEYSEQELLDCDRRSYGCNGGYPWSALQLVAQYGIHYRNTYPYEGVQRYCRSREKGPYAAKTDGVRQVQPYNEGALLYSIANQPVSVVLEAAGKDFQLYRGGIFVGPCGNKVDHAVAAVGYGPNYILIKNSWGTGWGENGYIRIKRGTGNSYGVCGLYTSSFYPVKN
Nature of the series: Inhibition of papain at 40 uM.

Series [2] has as its target T3, Ubiquitin carboxyl-terminal hydrolase 5 (Homo sapiens) (UniProt P45974).
T3 sequence (whole entry): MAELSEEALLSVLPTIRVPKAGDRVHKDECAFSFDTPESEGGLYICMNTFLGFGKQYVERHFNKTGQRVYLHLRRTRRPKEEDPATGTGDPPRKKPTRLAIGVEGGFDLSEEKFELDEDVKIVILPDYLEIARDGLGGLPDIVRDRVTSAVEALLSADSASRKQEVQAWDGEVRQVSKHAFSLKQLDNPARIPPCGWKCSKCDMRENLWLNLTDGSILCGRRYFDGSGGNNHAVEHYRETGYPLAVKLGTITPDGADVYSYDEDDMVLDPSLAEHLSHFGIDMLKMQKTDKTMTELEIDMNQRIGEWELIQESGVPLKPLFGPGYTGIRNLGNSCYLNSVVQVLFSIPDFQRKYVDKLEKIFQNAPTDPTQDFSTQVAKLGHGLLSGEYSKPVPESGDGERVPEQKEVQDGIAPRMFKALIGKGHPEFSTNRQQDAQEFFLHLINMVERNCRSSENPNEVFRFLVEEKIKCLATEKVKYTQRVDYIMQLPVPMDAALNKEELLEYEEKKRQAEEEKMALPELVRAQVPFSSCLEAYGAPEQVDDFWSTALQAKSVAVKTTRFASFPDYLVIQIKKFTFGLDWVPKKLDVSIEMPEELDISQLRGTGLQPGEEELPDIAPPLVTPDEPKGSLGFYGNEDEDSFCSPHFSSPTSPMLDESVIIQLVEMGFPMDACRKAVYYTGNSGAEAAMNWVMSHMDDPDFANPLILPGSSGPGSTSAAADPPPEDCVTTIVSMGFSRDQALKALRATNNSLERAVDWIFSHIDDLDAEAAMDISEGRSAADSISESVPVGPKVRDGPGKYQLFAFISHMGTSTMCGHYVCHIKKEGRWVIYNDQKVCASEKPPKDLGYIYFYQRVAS
Nature of the series: Inhibition of isopeptidase T at 40 uM.

A further series deals with N2a. Nature of the series: Cytotoxicity against serum-starved mouse N2A cells at 0.1 mM. The series is classed as cell-based. The note with it: 100 µM.
Another series has as its target T4, Caspase-3 (Homo sapiens) (UniProt P42574).
T4 sequence (whole entry): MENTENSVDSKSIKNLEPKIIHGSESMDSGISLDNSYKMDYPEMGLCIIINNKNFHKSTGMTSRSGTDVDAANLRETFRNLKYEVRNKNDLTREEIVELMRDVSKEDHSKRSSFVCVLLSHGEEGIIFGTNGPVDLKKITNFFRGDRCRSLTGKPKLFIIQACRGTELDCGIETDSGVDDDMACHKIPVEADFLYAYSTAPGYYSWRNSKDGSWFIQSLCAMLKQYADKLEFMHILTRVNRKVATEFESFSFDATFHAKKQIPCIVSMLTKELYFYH
Kind of series: Inhibition of caspase 3 at 40 uM.

Series [3] addresses T5, Protein-glutamine gamma-glutamyltransferase (Homo sapiens) (UniProt P21980).
T5 sequence (whole entry): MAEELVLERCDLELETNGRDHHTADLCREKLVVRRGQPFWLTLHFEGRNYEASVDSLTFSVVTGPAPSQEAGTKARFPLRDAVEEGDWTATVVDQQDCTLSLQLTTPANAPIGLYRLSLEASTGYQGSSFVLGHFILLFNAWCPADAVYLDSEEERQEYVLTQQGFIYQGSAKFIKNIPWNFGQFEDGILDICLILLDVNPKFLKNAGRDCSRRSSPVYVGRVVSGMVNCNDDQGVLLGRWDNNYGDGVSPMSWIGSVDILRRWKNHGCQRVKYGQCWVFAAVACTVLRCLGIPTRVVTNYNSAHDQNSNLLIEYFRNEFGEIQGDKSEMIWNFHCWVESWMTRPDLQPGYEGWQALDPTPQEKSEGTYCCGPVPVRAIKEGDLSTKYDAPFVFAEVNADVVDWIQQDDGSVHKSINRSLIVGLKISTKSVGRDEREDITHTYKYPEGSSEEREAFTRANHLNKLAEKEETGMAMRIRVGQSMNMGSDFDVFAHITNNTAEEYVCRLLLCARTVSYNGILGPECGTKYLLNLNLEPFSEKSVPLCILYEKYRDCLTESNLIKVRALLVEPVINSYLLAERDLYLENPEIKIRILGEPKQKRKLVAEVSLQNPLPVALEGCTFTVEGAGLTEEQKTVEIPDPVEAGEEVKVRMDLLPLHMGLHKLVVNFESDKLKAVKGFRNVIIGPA
Kind of series: Inhibition of TGase 2 at 40 uM.

The structures appear in SMILES notation. Activity calls are given as the source filed them. The calls are words filed in the database; no cut-off is given here.

In turn, `Cc1ccc(C(=O)c2sc3[nH]c(=O)c(C(=O)O)cc3c2N)cc1` yielded an inhibition in series [1] of 30%. The result (on Papain (Carica papaya); in series [2]) was inactive.
Turning to `Cl.Nc1c(C(=O)c2ccccc2)sc2[nH]c(=O)c(C(=O)O)cc12`, the result (in series [1]; on Caspase-3 (Homo sapiens); at Papain (Carica papaya); in series [3]) was inactive. For the same molecule, the Activity result in the series on N2a is reported as “Non-toxic”.
Regarding `Nc1c(C(=O)c2ccc(Cl)cc2)sc2[nH]c(=O)c(C(=O)O)cc12`, the outcome at Papain (Carica papaya) was inactive.

By inhibition is commonly meant the share of the control response that was lost under treatment.
